Assay results published in the CheMixHub viscosity set.

Assay: xn = mol fraction of the nth substance listed

CCCCOC(C)=O + CCCCCC
viscosity [mPa·s]
Details | 298.15 K | 308.15 K
101 kPa, x1 = 0.0521 | 0.3 | 0.282
101 kPa, x1 = 0.1491 | 0.319 | 0.3
101 kPa, x1 = 0.2486 | 0.341 | 0.321
101 kPa, x1 = 0.3517 | 0.368 | 0.346
101 kPa, x1 = 0.4482 | 0.397 | 0.372
101 kPa, x1 = 0.4932 | 0.412 | 0.385
101 kPa, x1 = 0.5515 | 0.433 | 0.403
101 kPa, x1 = 0.6483 | 0.472 | 0.436
101 kPa, x1 = 0.7486 | 0.519 | 0.474
101 kPa, x1 = 0.8491 | 0.574 | 0.517
101 kPa, x1 = 0.9461 | 0.635 | 0.565
101.3 kPa, x1 = 0.1335 | 0.3275 | –
101.3 kPa, x1 = 0.2322 | 0.3509 | –
101.3 kPa, x1 = 0.3294 | 0.3762 | –
101.3 kPa, x1 = 0.4644 | 0.4191 | –
101.3 kPa, x1 = 0.5644 | 0.4558 | –
101.3 kPa, x1 = 0.6697 | 0.4996 | –
101.3 kPa, x1 = 0.8002 | 0.5626 | –
101.3 kPa, x1 = 0.8967 | 0.6164 | –
101.3 kPa, x1 = 0.9324 | 0.6456 | –

Oc1ccccc1Cl + C1CCCCC1
viscosity [mPa·s], 303.15 K
Details | x2 = 0.1078 | x2 = 0.2025 | x2 = 0.3072 | x2 = 0.4048 | x2 = 0.6046 | x2 = 0.6564 | x2 = 0.7542 | x2 = 0.8969
101 kPa | 2.275 | 1.996 | 1.622 | 1.331 | 1.032 | 0.981 | 0.881 | 0.795
101.33 kPa | 2.275 | 1.996 | 1.622 | 1.331 | 1.032 | 0.981 | 0.881 | 0.794

CC(C)c1ccccc1 + CCCCO
viscosity [mPa·s], 101 kPa
Details | 298.15 K | 303.15 K | 308.15 K | 313.15 K | 318.15 K | 323.15 K
x1 = 0.0989 | 2.069 | – | 1.657 | – | – | –
x1 = 0.1844 | 1.723 | – | 1.398 | – | – | –
x1 = 0.2877 | 1.417 | – | 1.135 | – | – | –
x1 = 0.3941 | 1.188 | – | 0.9456 | – | – | –
x1 = 0.5189 | 1.001 | – | 0.8025 | – | – | –
x1 = 0.6544 | 0.8693 | – | 0.7291 | – | – | –
x1 = 0.796 | 0.7776 | – | 0.7157 | – | – | –
x2 = 0.1001 | – | 0.6982 | 0.6545 | 0.6143 | 0.5795 | 0.5481
x2 = 0.1998 | – | 0.7295 | 0.6815 | 0.6366 | 0.5969 | 0.5613
x2 = 0.3007 | – | 0.7788 | 0.7225 | 0.6725 | 0.6285 | 0.5885
x2 = 0.3997 | – | 0.8423 | 0.7784 | 0.7209 | 0.6696 | 0.6249
x2 = 0.4999 | – | 0.9355 | 0.8588 | 0.7901 | 0.7288 | 0.6767
x2 = 0.6 | – | 1.068 | 0.9725 | 0.8867 | 0.8131 | 0.7485
x2 = 0.6992 | – | 1.252 | 1.129 | 1.022 | 0.9275 | 0.848
x2 = 0.7999 | – | 1.474 | 1.323 | 1.187 | 1.068 | 0.9682
x2 = 0.9006 | – | 1.837 | 1.629 | 1.452 | 1.298 | 1.168
